Experimental data taken from patent US7709533B2, “Imines as ion channel modulators” (Icagen, Inc., priority 2005, dated 2010).

Target: T1, human intermediate-conductance, calcium-activated K+ channels (h-IK1) (Homo sapiens, UniProt O15554)
T1 construct: expressed in transfected cells; host or cells: CHO-K1 (ATCC CCL-61), kept under G-418 selection
Experiment: Rubidium efflux assay (86Rb+ efflux, CHO-K1 cells expressing h-IK1)
Assay type: cell-based
Settings: hIK1 in CHO-K1 cells; 86Rb+ efflux stimulated with ionomycin; drug 0.01-30 μM, 6 min preincubation, 10 min efflux; read-out: IK1 Inhibitory Activity
Method: CHO-K1 cells (American Type Culture Collection, CCL-61) expressing human intermediate-conductance, calcium-activated K^+ channels (h-IK1) are cultured in Ham's F-12 medium (HyClone) supplemented with 10% heat inactivated fetal bovine serum (Nova-Tech) and 400 μg/mL G-418 (Geneticin, Life Technologies), in an incubator at 37° C. with a humidified atmosphere of 5% CO2. Cells are typically sub-cultured twice per week. When the culture flask reaches 70%-90% confluency, the culture medium is removed, cells are rinsed twice with calcium and magnesium-free Dulbecco's phospate buffed saline (PBS) and a 0.05% trypsin/0.5 mM EDTA in HBSS solution is added until cells begin to round up (typically 2-5 min). Twenty four hours prior to the experiment, cells are removed from the culture flask and resuspended in Ham's F-12 medium supplemented with 10% heat inactivated fetal bovine serum, 50 μg/mL streptomycin, 50 U/mL penicillin, 10 mM HEPES, pH 7.2, and plated on 96 well, cell culture treated, flat bottomed trays (TPP 96, 4×10^6 cells per 96 well plate; 100 μL/well). Cells are loaded with ^86Rb^+ by incubating the cells overnight in culture medium containing 1 μCi/ml ^86RbCl (Perkin-Elmer) using a Labsystems Multidrop. On the day of the experiment, Culture media is removed and the cells are washed 4 times with 100 μL per well of zero Ca^2+ Earl's Balanced Salt Solution (EBSS)[composition (mM): NaCl (138), KCl (5.4), MgCl2 (1), glucose (10), HEPES (10), pH 7.4 with 10N NaOH]. Cells were preincubated with drug (0.01-30 μM) in low Ca^2+ EBSS, [composition (mM): NaCl (138), CaCl2 (0.25), KCl (5.4), MgCl2 (1), glucose (10), HEPES (10), pH 7.4 with 10N NaOH] for 6 min. ^86Rb^+ efflux is stimulated by exposing cells to regular EBSS [composition (mM): NaCl (138), CaCl2 (1.8), KCl (5.4), MgCl2 (1), glucose (10), HEPES (10), pH 7.4 with 10N NaOH] supplemented with […] ionomycin (Calbiochem), in the continued presence of drug. After a 10 min efflux period, the EBSS/ionomycin solution is removed from the cells and the ^86Rb^+ content determined by Cherenkov counting (Wallac 1450 Microbeta Trilux liquid scintillation and luminescence counter). Cells are then lysed with 100 μL 0.1% SDS solution per well, and the ^86Rb^+ content of the lysate determined. Percent ^86Rb^+ efflux is calculated according to the following formula: (^86Rb^+ content in EBSS/(^86Rb^+ content in EBSS+^86Rb^+ content of the lysate))×100.

Compound | IC50
COC(=N)C(c1ccccc1)(c1ccc(F)cc1)c1ccc(F)cc1 [Example 28, 2,2-Bis-(4-fluoro-phenyl)-2-phenyl-acetimidic acid methyl ester] | 1000 to 10000 nM
CC(=NO)C(c1ccccc1)(c1ccccc1)c1ccccc1 [Example 34, 1,1,1-Triphenyl-propan-2-one oxime] | > 10000 nM
CON=CC(c1ccccc1)(c1ccccc1)c1ccccc1Cl [Example 7, (2-Chloro-phenyl)-diphenyl-acetaldehyde O-methyl-oxime] | < 500 nM
CON=C(C)C(c1ccccc1)(c1ccccc1)c1ccccc1 [Example 26, 1,1,1-Triphenyl-propan-2-one O-methyl-oxime] | 1000 to 10000 nM
COc1ccc(C(C(=N)NO)(c2ccccc2)c2ccccc2)cc1 [Example 12, N-Hydroxy-2-(4-methoxy-phenyl)-2,2-diphenyl-acetamidine] | 500 to 1000 nM
N=C(NO)C(c1ccccc1)(c1ccc(F)cc1)c1ccc(F)cc1 [Example 2, 2,2-Bis-(4-fluoro-phenyl)-N-hydroxy-2-phenyl-acetamidine] | < 500 nM
Cc1ccc(C(C(=N)N)(c2cccc(F)c2)c2cccc(F)c2)cn1 [Example 17, 2,2-Bis-(3-fluoro-phenyl)-2-(6-methyl-pyridin-3-yl)-acetamidine] | 1000 to 10000 nM
N=C(NO)C(c1ccccc1)(c1ccc(F)cc1)c1ccccc1F (centres unmarked) [Example 1, 2-(2-Fluoro-phenyl)-2-(4-fluoro-phenyl)-N-hydroxy-2-phenyl-acetamidine] | < 500 nM
N=C(N)C(c1ccccc1)(c1ccccc1)c1ccccc1 [Example 22, 2,2,2-Triphenyl-acetamidine] | 1000 to 10000 nM
Cc1nc(C(c2ccccc2)(c2ccccc2)c2cccc(F)n2)no1 [Example 16, 2-Fluoro-6-[(5-methyl-[1,2,4]oxadiazol-3-yl)-diphenyl-methyl]-pyridine] | 1000 to 10000 nM
CCONC(=N)C(c1ccc(F)cc1)(c1ccc(F)cc1)c1ccc(F)cc1 [Example 4, N-Ethoxy-2,2,2-tris-(4-fluoro-phenyl)-acetamidine] | < 500 nM
N=C(NO)C(c1ccc(F)cc1)(c1ccc(F)cc1)c1ccccc1Cl [Example 5, 2-(2-Chloro-phenyl)-2,2-bis-(4-fluoro-phenyl)-N-hydroxy-acetamidine] | < 500 nM
N=C(NO)C(c1ccccc1)(c1ccccc1)c1ccccc1Cl [2-(2-Chloro-phenyl)-N-hydroxy-2,2-diphenyl-acetamidine] | < 500 nM
N=C(NO)C(c1ccccc1)(c1ccccc1)c1ccccc1 [Example 11, N-Hydroxy-2,2,2-triphenyl-acetamidine] | 500 to 1000 nM
N=C(NO)C(c1cccc(F)n1)(c1cccc(F)n1)c1cccc(F)n1 [Example 30, 2,2,2-Tris-(6-fluoro-pyridin-2-yl)-N-hydroxy-acetamidine] | > 10000 nM
N=C(NO)C(c1cccc(F)c1)(c1cccc(F)n1)c1cccc(F)n1 [Example 14, 2-(3-Fluoro-phenyl)-2,2-bis-(6-fluoro-pyridin-2-yl)-N-hydroxy-acetamidine] | 1000 to 10000 nM
N=C(N)C(c1cccc(F)n1)(c1cccc(F)n1)c1cccc(F)n1 [Example 15, 2,2,2-Tris-(6-fluoro-pyridin-2-yl)-acetamidine] | 1000 to 10000 nM
N=C(N)C(c1ccc(F)cc1)(c1ccc(F)cc1)c1ccc(F)cc1 [Example 18, 2,2,2-Tris-(4-fluoro-phenyl)-acetamidine] | 1000 to 10000 nM

Compound | IC50
N=C(NN)C(c1ccc(F)cc1)(c1ccc(F)cc1)c1ccc(F)cc1 [Example 10, 2,2,2-Tris-(4-fluoro-phenyl)-N-amino-acetamidine] | 500 to 1000 nM
CC(=NN)C(c1ccccc1)(c1ccccc1)c1ccccc1 [Example 25, (1-Methyl-2,2,2-triphenyl-ethylidene)-hydrazine] | 1000 to 10000 nM
N=C(N)C(c1ccccc1)(c1ccc(F)cc1)c1ccc(F)cc1 [Example 21, 2,2-Bis-(4-fluoro-phenyl)-2-phenyl-acetamidine] | 1000 to 10000 nM
COC(=N)C(c1ccc(F)cc1)(c1ccc(F)cc1)c1ccc(F)cc1 [Example 27, 2,2,2-Tris-(4-fluoro-phenyl)-acetimidic acid methyl ester] | 1000 to 10000 nM
N=C(NO)C(c1ccccc1)(c1ccccc1)c1cccc(F)n1 [Example 13, 2-(6-Fluoro-pyridin-2-yl)-N-hydroxy-2,2-diphenyl-acetamidine] | 500 to 1000 nM
CCON=C(C)C(c1ccccc1)(c1ccccc1)c1ccccc1 [Example 33, 1,1,1-Triphenyl-propan-2-one O-ethyl-oxime] | > 10000 nM
ON=CC(c1ccccc1)(c1ccccc1)c1ccccc1Cl [Example 6, (2-Chloro-phenyl)-diphenyl-acetaldehyde oxime] | < 500 nM
N=C(NO)C(c1ccc(F)cc1)(c1ccc(F)cc1)c1ccc(F)cc1 [Example 3, 2,2,2-Tris-(4-fluoro-phenyl)-N-hydroxy-acetamidine] | < 500 nM
N=C(NN)C(c1ccccc1)(c1ccc(F)cc1)c1ccc(F)cc1 [Example 9, 2,2-Bis-(4-fluoro-phenyl)-N-amino-2-phenyl-acetamidine] | 500 to 1000 nM
COc1ccc(C(C(=N)NO)(c2ccccc2)c2ccc(OC)cc2)cc1 [Example 23, N-Hydroxy-2,2-bis-(4-methoxy-phenyl)-2-phenyl-acetamidine] | 1000 to 10000 nM
CC(C)ONC(=N)C(c1ccc(F)cc1)(c1ccc(F)cc1)c1ccc(F)cc1 [Example 20, 2,2,2-Tris-(4-fluoro-phenyl)-N-isopropoxy-acetamidine] | 1000 to 10000 nM
COc1ccc(C(C(=N)NO)(c2ccc(OC)cc2)c2ccc(OC)cc2)cc1 [Example 31, N-Hydroxy-2,2,2-tris-(4-methoxy-phenyl)-acetamidine] | > 10000 nM
N=C(NO)C(c1ccccc1)(c1ccccc1)c1ccc(O)cc1 [Example 24, N-Hydroxy-2-(4-hydroxy-phenyl)-2,2-diphenyl-acetamidine] | 1000 to 10000 nM
CONC(=N)C(c1ccc(F)cc1)(c1ccc(F)cc1)c1ccc(F)cc1 [Example 19, 2,2,2-Tris-(4-fluoro-phenyl)-N-methoxy-acetamidine] | 1000 to 10000 nM
CN=C(OC)C(c1ccccc1)(c1ccc(F)cc1)c1ccc(F)cc1 [Example 29, 2,2-Bis-(4-fluoro-phenyl)-N-methyl-2-phenyl-acetimidic acid methyl ester] | 1000 to 10000 nM
N=C(NO)C(c1ccccc1)(c1ccc(O)cc1)c1ccc(O)cc1 [Example 32, N-Hydroxy-2,2-bis-(4-hydroxy-phenyl)-2-phenyl-acetamidine] | > 10000 nM
CONC(=N)C(c1ccccc1)(c1ccc(F)cc1)c1ccc(F)cc1 [Example 8, 2,2-Bis-(4-fluoro-phenyl)-N-methoxy-2-phenyl-acetamidine] | < 500 nM
